Test results taken from ChEMBL document CHEMBL4706727, “Discovery of 2,4-1H-Imidazole Carboxamides as Potent and Selective TAK1 Inhibitors” (ACS Med Chem Lett, 2021).

Biological target: TAK1/TAB1 (Homo sapiens, UniProt O43318)
Test: Inhibition of recombinant human full-length His-tagged TAK1-TAB1 fusion protein (437 to 504 residues) expressed in baculovirus expression system using fluorescein-MAP2K1 as substrate preincubated for 30 mins followed by substrate addition and measured after 60 mins in presence of ATP by lanthascreen TR-FRET assay

Sequence of TAK1/TAB1 (Q15750 whole entry, the tested form may be a part): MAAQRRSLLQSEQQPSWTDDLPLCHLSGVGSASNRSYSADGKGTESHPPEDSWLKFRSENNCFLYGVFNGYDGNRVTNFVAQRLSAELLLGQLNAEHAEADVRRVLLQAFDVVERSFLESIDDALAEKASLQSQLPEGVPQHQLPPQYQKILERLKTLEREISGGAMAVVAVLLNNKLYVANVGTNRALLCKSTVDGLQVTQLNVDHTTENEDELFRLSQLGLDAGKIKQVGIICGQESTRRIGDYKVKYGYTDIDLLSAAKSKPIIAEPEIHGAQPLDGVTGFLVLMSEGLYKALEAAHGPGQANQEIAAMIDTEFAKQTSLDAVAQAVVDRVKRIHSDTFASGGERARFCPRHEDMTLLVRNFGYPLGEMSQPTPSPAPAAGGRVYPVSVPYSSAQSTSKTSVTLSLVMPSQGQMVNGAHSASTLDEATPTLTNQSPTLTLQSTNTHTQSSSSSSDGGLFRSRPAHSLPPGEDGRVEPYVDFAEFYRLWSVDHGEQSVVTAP
Sequence of TAK1/TAB1 (O43318 whole entry, the tested form may be a part): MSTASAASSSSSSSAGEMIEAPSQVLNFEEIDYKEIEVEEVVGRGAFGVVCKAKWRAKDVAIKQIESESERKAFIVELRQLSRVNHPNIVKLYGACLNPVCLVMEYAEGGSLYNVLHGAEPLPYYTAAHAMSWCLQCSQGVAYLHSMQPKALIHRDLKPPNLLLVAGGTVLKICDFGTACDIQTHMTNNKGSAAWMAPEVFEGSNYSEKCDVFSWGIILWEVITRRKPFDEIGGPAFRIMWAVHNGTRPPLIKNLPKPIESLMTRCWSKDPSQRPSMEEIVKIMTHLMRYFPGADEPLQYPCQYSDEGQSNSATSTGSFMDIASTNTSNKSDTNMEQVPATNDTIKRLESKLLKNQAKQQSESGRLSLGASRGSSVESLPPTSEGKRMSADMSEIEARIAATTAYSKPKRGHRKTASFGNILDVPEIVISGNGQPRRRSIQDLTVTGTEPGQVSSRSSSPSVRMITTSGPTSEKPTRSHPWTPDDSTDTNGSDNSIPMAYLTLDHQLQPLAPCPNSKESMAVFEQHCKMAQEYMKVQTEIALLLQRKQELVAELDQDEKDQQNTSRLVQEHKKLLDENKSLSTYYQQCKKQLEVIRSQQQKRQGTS

Structure (SMILES)	IC50 [µM]
CNC(=O)CN(Cc1cccc(OC)c1OC(F)F)C(=O)c1c[nH]c(C(=O)N2CCCC2)n1	> 10
CNC(=O)[C@@H](C)N(Cc1ccccc1OC(F)F)C(=O)c1c[nH]c(C(=O)N2CCCC2)n1	0.3
CNC(=O)CN(Cc1cc(Cl)ccc1OC(F)F)C(=O)c1c[nH]c(C(=O)N2CCCC2)n1	> 10
CNC(=O)C(C)N(Cc1ccccc1OC(F)F)C(=O)c1c[nH]c(C(=O)N2CCCC2)n1 (configuration not stated)	0.5
CCNC(=O)c1cc(C(=O)N(CC(=O)NC)Cc2ccccc2OC(F)F)c[nH]1	> 100
CNC(=O)CN(Cc1ccc(OC)cc1OC(F)F)C(=O)c1c[nH]c(C(=O)N2CCCC2)n1	> 10
CNC(=O)CN(Cc1ccccc1OC(F)F)C(=O)c1c[nH]c(C(=O)N2CC3CCCCC3C2)n1 (configuration not stated)	3.4
CNC(=O)CN(Cc1cccc2c1OCCCO2)C(=O)c1c[nH]c(C(=O)N2CCCC2)c1	3.4
NC(=O)CN(Cc1ccccc1OC(F)F)C(=O)c1c[nH]c(C(=O)N2CCCC2)c1	0.9
CNC(=O)CN(Cc1ccccc1OC(F)F)C(=O)c1c[nH]c(C(=O)N2CCC(c3ccccc3)C2)n1 (configuration not stated)	2.3
CNC(=O)CN(Cc1ccccc1OC(F)F)C(=O)c1c[nH]c(C(=O)N2CCC(F)C2)n1 (configuration not stated)	1.2
CNC(=O)CN(Cc1ccccc1OC(F)F)C(=O)c1c[nH]c(C(=O)N2CCC(NC(C)=O)C2)n1 (configuration not stated)	> 10
CCOc1ccccc1CN(CC(=O)NC)C(=O)c1c[nH]c(C(=O)N2CCCC2)c1	2.6
CNC(=O)CN(Cc1ccccc1OC(F)F)C(=O)c1c[nH]c(C(=O)N2CCC2)n1	2.6
CNC(=O)CN(Cc1ccccc1OC(F)F)C(=O)c1c[nH]c(C(=O)N2CCC(OC)C2)n1 (configuration not stated)	> 10
CNC(=O)C(C(C)C)N(Cc1ccccc1OC(F)F)C(=O)c1c[nH]c(C(=O)N2CCCC2)n1 (configuration not stated)	> 10
CNC(=O)CN(Cc1c(F)cccc1OC(F)F)C(=O)c1c[nH]c(C(=O)N2CCCC2)n1	> 10
CNC(=O)CN(Cc1ccccc1OC(F)F)C(=O)c1c[nH]c(C(=O)N(C)C)c1	26
CNC(=O)CN(Cc1ccccc1OC(F)F)C(=O)c1c[nH]c(C(=O)N2CCCC2C)n1 (configuration not stated)	5.7
CNC(=O)CN(Cc1ccccc1OC)C(=O)c1c[nH]c(C(=O)N2CCCC2)c1	2.8
CNC(=O)[C@H](C)N(Cc1ccccc1OC(F)F)C(=O)c1c[nH]c(C(=O)N2CCCC2)n1	4.5
CNC(=O)CN(C(=O)c1c[nH]c(C(=O)N2CCCC2)n1)C(C)c1ccccc1OC(F)F (configuration not stated)	> 10
